Reference: article PMC6591251, “Discovery of potent necroptosis inhibitors targeting RIPK1 kinase activity for the treatment of inflammatory disorder and cancer metastasis” (Cell Death & Disease, 2019)

Assays:
Test in all cases: RBC kinase panel
Format in all cases: biochemical
ERN1/IRE1 = molecular target: T1, ERN1/IRE1 (Homo sapiens, UniProt O75460); details: ATP 10 μM, Data1, Data2
T1 construct: purchased Reaction Biology Corporation
Outline: (§1)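 Test compound was screened at a single concentration of 1 μM, in duplicate, across a panel of 369 human kinases. Every kinase reaction contained 10 μM ATP.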

Aurora C = molecular target: T2, Aurora C (Homo sapiens, UniProt Q9UQB9); details: ATP 10 μM, Data1, Data2
T2 construct: purchased Reaction Biology Corporation
Outline: as §1

DYRK3 = molecular target: T3, DYRK3 (Homo sapiens, UniProt O43781); details: ATP 10 μM, Data1, Data2
T3 construct: purchased Reaction Biology Corporation
Outline: as §1

ULK1 = molecular target: T4, ULK1 (Homo sapiens, UniProt O75385); details: ATP 10 μM, Data1, Data2
T4 construct: purchased Reaction Biology Corporation
Outline: as §1

LIMK2 = molecular target: T5, LIMK2 (Homo sapiens, UniProt P53671)
T5 construct: purchased Reaction Biology Corporation
Outline: as §1

FLT3 = molecular target: T6, FLT3 (Homo sapiens, UniProt P36888); details: ATP 10 μM, Data1, Data2
T6 construct: purchased Reaction Biology Corporation
Outline: as §1

TTBK2 = molecular target: T7, TTBK2 (Homo sapiens, UniProt Q6IQ55); details: ATP 10 μM, Data1, Data2
T7 construct: purchased Reaction Biology Corporation
Outline: as §1

CDK2/Cyclin A1 = molecular target: T8, CDK2/Cyclin A1 (Homo sapiens, UniProt P24941); details: ATP 10 μM, Data1, Data2
T8 construct: purchased Reaction Biology Corporation
Outline: as §1

PKN3/PRK3 = molecular target: T9, PKN3/PRK3 (Homo sapiens, UniProt Q6P5Z2); details: ATP 10 μM, Data1, Data2
T9 construct: purchased Reaction Biology Corporation
Outline: as §1

CDK7/cyclin H = molecular target: T10, CDK7/cyclin H (Homo sapiens, UniProt P50613); details: ATP 10 μM, Data1, Data2
T10 construct: purchased Reaction Biology Corporation
Outline: as §1

EPHB2 = molecular target: T11, EPHB2 (Homo sapiens, UniProt P29323); details: ATP 10 μM, Data1, Data2
T11 construct: purchased Reaction Biology Corporation
Outline: as §1

LCK = molecular target: T12, LCK (Homo sapiens, UniProt P06239); details: ATP 10 μM, Data1, Data2
T12 construct: purchased Reaction Biology Corporation
Outline: as §1

SGK2 = molecular target: T13, SGK2 (Homo sapiens, UniProt Q9HBY8); details: ATP 10 μM, Data1, Data2
T13 construct: purchased Reaction Biology Corporation
Outline: as §1

TAOK2/TAO1 = molecular target: T14, TAOK2/TAO1 (Homo sapiens, UniProt Q9UL54); details: ATP 10 μM, Data1, Data2
T14 construct: purchased Reaction Biology Corporation
Outline: as §1

MEKK1 = molecular target: T15, MEKK1 (Homo sapiens, UniProt Q13233); details: ATP 10 μM, Data1, Data2
T15 construct: purchased Reaction Biology Corporation
Outline: as §1

CDK2/cyclin O = molecular target: T16, CDK2/cyclin O (Homo sapiens, UniProt P24941); details: ATP 10 μM, Data1, Data2
T16 construct: purchased Reaction Biology Corporation
Outline: as §1

MLK1/MAP3K9 = molecular target: T17, MLK1/MAP3K9 (Homo sapiens, UniProt P80192); details: ATP 10 μM, Data1, Data2
T17 construct: purchased Reaction Biology Corporation
Outline: as §1

EPHA4 = molecular target: T18, EPHA4 (Homo sapiens, UniProt P54764); details: ATP 10 μM, Data1, Data2
T18 construct: purchased Reaction Biology Corporation
Outline: as §1

GCK/MAP4K2 = molecular target: T19, GCK/MAP4K2 (Homo sapiens, UniProt Q12851); details: ATP 10 μM, Data1, Data2
T19 construct: purchased Reaction Biology Corporation
Outline: as §1

STK21/CIT = molecular target: T20, STK21/CIT (Homo sapiens, UniProt O14578); details: ATP 10 μM, Data1, Data2
T20 construct: purchased Reaction Biology Corporation
Outline: as §1

MST3/STK24 = molecular target: T21, MST3/STK24 (Homo sapiens, UniProt Q9Y6E0); details: ATP 10 μM, Data1, Data2
T21 construct: purchased Reaction Biology Corporation
Outline: as §1

DAPK2 = molecular target: T22, DAPK2 (Homo sapiens, UniProt Q9UIK4); details: ATP 10 μM, Data1, Data2
T22 construct: purchased Reaction Biology Corporation
Outline: as §1

WNK3 = molecular target: T23, WNK3 (Homo sapiens, UniProt Q9BYP7); details: ATP 10 μM, Data1, Data2
T23 construct: purchased Reaction Biology Corporation
Outline: as §1

HIPK3 = molecular target: T24, HIPK3 (Homo sapiens, UniProt Q9H422); details: ATP 10 μM, Data1, Data2
T24 construct: purchased Reaction Biology Corporation
Outline: as §1

MEK1 = molecular target: T25, MEK1 (Homo sapiens, UniProt Q02750); details: ATP 10 μM, Data1, Data2
T25 construct: purchased Reaction Biology Corporation
Outline: as §1

TRKC = molecular target: T26, TRKC (Homo sapiens, UniProt Q16288)
T26 construct: purchased Reaction Biology Corporation
Outline: as §1

FRK/PTK5 = molecular target: T27, FRK/PTK5 (Homo sapiens, UniProt P42685); details: ATP 10 μM, Data1, Data2
T27 construct: purchased Reaction Biology Corporation
Outline: as §1

ROCK2 = molecular target: T28, ROCK2 (Homo sapiens, UniProt O75116); details: ATP 10 μM, Data1, Data2
T28 construct: purchased Reaction Biology Corporation
Outline: as §1

CSK = molecular target: T29, CSK (Homo sapiens, UniProt P41240); details: ATP 10 μM, Data1, Data2
T29 construct: purchased Reaction Biology Corporation
Outline: as §1

ERK2/MAPK1 = molecular target: T30, ERK2/MAPK1 (Homo sapiens, UniProt P28482); details: ATP 10 μM, Data1, Data2
T30 construct: purchased Reaction Biology Corporation
Outline: as §1

TAOK1 = molecular target: T31, TAOK1 (Homo sapiens, UniProt Q7L7X3); details: ATP 10 μM, Data1, Data2
T31 construct: purchased Reaction Biology Corporation
Outline: as §1

TAOK3/JIK = molecular target: T32, TAOK3/JIK (Homo sapiens, UniProt Q9H2K8); details: ATP 10 μM, Data1, Data2
T32 construct: purchased Reaction Biology Corporation
Outline: as §1

T26 sequence (Q16288 32-839): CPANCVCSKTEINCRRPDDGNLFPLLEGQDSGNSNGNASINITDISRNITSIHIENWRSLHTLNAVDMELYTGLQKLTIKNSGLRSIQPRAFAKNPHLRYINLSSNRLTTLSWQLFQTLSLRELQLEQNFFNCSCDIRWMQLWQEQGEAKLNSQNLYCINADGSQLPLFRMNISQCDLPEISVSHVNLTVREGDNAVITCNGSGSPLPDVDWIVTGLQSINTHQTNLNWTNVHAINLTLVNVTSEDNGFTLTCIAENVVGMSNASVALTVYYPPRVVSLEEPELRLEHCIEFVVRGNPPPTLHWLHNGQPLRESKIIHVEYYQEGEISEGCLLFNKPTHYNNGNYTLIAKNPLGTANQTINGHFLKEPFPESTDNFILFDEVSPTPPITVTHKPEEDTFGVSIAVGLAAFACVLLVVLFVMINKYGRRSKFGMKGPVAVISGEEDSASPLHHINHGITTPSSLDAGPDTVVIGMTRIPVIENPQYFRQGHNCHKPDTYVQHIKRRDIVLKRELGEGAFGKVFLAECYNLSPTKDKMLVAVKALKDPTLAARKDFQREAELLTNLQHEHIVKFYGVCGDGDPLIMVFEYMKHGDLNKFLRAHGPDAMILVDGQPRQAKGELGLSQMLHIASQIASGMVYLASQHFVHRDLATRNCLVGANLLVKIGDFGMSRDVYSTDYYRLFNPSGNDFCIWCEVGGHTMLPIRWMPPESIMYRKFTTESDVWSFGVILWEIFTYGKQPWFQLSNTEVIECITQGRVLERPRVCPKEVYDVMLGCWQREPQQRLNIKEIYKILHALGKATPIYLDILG
T5 sequence (P53671 whole entry): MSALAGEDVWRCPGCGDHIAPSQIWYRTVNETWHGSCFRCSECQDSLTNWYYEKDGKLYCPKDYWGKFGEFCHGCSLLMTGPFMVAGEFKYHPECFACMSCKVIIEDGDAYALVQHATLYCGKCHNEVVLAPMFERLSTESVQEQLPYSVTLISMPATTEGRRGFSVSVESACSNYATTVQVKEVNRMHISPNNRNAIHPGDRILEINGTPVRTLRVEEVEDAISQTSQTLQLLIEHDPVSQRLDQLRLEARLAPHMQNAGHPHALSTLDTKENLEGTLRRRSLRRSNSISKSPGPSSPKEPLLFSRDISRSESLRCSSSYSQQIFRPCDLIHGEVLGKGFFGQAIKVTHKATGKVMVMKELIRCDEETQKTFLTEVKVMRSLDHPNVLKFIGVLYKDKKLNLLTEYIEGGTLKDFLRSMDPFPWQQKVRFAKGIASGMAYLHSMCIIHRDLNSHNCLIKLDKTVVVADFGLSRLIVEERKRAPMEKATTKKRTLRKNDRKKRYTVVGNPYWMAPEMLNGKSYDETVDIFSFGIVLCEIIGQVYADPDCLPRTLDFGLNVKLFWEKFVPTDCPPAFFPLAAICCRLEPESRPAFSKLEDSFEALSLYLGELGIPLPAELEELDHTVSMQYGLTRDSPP
T28 sequence (O75116 whole entry): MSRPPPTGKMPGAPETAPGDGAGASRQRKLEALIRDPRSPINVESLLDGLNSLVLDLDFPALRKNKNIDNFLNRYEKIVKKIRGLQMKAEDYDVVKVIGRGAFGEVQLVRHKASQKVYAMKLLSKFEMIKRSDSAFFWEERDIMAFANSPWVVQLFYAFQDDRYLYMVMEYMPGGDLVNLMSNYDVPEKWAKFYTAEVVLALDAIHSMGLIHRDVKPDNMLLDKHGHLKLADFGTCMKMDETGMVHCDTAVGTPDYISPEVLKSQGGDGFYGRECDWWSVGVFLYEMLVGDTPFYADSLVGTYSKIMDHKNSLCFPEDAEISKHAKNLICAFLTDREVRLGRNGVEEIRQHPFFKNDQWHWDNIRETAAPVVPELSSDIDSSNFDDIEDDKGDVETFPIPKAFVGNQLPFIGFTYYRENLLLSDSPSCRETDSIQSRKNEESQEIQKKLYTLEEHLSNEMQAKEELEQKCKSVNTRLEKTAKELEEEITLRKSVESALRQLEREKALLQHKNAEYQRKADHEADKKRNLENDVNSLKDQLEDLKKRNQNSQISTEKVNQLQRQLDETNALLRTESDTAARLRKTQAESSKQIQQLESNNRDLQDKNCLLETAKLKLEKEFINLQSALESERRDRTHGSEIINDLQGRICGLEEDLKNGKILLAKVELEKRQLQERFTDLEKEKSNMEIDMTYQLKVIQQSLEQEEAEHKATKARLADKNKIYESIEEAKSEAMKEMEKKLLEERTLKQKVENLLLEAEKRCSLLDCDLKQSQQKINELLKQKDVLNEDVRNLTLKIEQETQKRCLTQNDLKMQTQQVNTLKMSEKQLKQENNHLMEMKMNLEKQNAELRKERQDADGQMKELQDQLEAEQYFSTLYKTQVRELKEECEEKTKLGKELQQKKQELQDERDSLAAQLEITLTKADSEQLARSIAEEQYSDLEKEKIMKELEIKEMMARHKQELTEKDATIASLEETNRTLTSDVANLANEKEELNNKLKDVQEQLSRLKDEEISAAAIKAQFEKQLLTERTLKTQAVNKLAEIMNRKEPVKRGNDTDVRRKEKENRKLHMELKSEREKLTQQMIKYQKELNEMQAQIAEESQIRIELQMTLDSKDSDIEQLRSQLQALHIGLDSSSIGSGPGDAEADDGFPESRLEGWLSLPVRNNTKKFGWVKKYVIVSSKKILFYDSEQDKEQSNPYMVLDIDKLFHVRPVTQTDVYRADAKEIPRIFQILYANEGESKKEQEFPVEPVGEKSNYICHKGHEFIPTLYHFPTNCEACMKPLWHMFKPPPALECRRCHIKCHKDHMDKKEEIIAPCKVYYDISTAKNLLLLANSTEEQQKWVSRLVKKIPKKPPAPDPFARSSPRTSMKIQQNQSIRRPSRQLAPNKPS
T11 sequence (P29323 19-1055): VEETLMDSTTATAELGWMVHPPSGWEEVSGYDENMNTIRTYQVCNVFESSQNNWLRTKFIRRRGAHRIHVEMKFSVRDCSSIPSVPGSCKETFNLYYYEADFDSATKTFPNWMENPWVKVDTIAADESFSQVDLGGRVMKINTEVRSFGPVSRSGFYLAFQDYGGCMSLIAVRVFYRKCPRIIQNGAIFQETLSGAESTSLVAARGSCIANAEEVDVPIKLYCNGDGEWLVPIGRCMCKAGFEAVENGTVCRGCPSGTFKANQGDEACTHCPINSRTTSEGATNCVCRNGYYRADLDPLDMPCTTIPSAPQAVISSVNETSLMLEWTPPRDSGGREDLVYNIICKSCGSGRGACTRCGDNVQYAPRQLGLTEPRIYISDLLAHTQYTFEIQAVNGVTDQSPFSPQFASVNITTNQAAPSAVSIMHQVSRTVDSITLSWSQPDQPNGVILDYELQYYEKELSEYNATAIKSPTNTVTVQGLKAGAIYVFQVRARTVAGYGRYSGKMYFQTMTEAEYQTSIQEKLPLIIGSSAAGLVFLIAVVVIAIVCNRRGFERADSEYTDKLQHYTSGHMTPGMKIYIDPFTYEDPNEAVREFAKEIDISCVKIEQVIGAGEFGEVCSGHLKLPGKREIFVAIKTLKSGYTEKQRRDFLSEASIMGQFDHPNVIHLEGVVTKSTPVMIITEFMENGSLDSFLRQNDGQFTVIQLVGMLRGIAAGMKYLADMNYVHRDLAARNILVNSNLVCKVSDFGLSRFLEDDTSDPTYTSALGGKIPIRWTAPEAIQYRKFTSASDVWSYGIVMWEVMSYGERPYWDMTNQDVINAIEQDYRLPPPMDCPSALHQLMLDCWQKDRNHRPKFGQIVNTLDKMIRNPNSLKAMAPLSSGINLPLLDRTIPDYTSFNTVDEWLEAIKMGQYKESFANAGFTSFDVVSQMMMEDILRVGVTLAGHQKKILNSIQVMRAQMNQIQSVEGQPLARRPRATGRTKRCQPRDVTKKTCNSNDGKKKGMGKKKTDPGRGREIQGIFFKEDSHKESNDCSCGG
T27 sequence (P42685 whole entry): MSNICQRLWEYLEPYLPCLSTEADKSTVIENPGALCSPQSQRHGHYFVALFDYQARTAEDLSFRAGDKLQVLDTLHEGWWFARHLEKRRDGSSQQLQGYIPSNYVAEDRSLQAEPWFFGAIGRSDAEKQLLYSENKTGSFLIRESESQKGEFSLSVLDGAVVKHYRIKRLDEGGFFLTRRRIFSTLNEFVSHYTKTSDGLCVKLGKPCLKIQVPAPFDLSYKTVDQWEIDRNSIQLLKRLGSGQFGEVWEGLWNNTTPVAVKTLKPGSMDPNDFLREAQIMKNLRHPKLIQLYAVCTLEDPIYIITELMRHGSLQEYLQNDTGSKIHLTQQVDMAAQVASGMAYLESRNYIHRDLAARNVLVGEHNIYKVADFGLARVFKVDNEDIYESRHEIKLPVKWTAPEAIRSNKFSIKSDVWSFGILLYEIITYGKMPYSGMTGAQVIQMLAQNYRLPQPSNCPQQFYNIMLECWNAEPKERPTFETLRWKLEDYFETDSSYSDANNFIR
T21 sequence (Q9Y6E0 whole entry): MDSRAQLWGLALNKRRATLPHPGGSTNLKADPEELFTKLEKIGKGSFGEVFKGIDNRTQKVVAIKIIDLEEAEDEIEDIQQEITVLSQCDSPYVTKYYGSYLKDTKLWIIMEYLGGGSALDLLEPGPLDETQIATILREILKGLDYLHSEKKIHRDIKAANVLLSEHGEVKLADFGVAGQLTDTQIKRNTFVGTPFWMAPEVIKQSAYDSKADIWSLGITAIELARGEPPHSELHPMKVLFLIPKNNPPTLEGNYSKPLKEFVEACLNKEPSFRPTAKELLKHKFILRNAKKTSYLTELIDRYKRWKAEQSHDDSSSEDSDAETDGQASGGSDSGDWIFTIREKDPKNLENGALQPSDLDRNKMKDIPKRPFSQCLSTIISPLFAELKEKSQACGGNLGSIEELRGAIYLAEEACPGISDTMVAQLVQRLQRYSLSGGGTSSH

CC(=O)Nc1nc2ccc(-c3cnc(C)c(NC(=O)OC4CCCCC4)c3)cc2s1 [PK68, cyclohexyl (5-(2-acetamidobenzo[d]thiazol-6-yl)-2-methylpyridin-3-yl)carbamate]
Activity% (ERN1/IRE1; 1 μM): 88.33%
activity at 1 µM (ERN1/IRE1): 88.7%
Activity% (Aurora C; 1 μM): 92.22%
activity at 1 µM (Aurora C): 94.1%
Activity% (DYRK3; 1 μM): 81.73%
activity at 1 µM (DYRK3): 83%
Activity% (ULK1; 1 μM): 100.13%
activity at 1 µM (ULK1): 105%
Activity% (LIMK2; 1 μM, ATP 10 μM, Data1, Data2): 42.64%
activity at 1 µM (LIMK2; 1 μM, ATP 10 μM, Data1, Data2): 44%
inhibition at 1 µM (LIMK2; at 1000 nM): > 50%
Activity% (FLT3; 1 μM): 57.70%
activity at 1 µM (FLT3): 58%
Activity% (TTBK2; 1 μM): 98.08%
activity at 1 µM (TTBK2): 98.4%
Activity% (CDK2/Cyclin A1; 1 μM): 96.71%
activity at 1 µM (CDK2/Cyclin A1): 98.5%
Activity% (PKN3/PRK3; 1 μM): 92.58%
activity at 1 µM (PKN3/PRK3): 94.1%
Activity% (CDK7/cyclin H; 1 μM): 87.73%
activity at 1 µM (CDK7/cyclin H): 89.2%
Activity% (EPHB2; 1 μM): 101.30%
activity at 1 µM (EPHB2): 102%
Activity% (LCK; 1 μM): 62.75%
activity at 1 µM (LCK): 62.9%
Activity% (SGK2; 1 μM): 99.97%
activity at 1 µM (SGK2): 101%
Activity% (TAOK2/TAO1; 1 μM): 81.88%
activity at 1 µM (TAOK2/TAO1): 82.6%
Activity% (MEKK1; 1 μM): 92.88%
activity at 1 µM (MEKK1): 95.3%
Activity% (CDK2/cyclin O; 1 μM): 98.77%
activity at 1 µM (CDK2/cyclin O): 99.8%
Activity% (MLK1/MAP3K9; 1 μM): 99.64%
activity at 1 µM (MLK1/MAP3K9): 99.7%
Activity% (EPHA4; 1 μM): 92.78%
activity at 1 µM (EPHA4): 92.8%
Activity% (GCK/MAP4K2; 1 μM): 96.82%
activity at 1 µM (GCK/MAP4K2): 97.6%
Activity% (STK21/CIT; 1 μM): 121.90%
activity at 1 µM (STK21/CIT): 125%
Activity% (MST3/STK24; 1 μM): 100.31%
activity at 1 µM (MST3/STK24): 102%
Activity% (DAPK2; 1 μM): 107.36%
activity at 1 µM (DAPK2): 109%
Activity% (WNK3; 1 μM): 106.32%
activity at 1 µM (WNK3): 107%
Activity% (HIPK3; 1 μM): 63.99%
activity at 1 µM (HIPK3): 66.4%
Activity% (MEK1; 1 μM): 97.25%
activity at 1 µM (MEK1): 99%
Activity% (TRKC; 1 μM, ATP 10 μM, Data1, Data2): 33.96%
activity at 1 µM (TRKC; 1 μM, ATP 10 μM, Data1, Data2): 35.4%
inhibition at 1 µM (TRKC; at 1000 nM): > 50%
Activity% (FRK/PTK5; 1 μM): 97.78%
activity at 1 µM (FRK/PTK5): 101%
Activity% (ROCK2; 1 μM): 95.49%
activity at 1 µM (ROCK2): 95.5%
Activity% (CSK; 1 μM): 91.36%
activity at 1 µM (CSK): 92.8%
Activity% (ERK2/MAPK1; 1 μM): 92.60%
activity at 1 µM (ERK2/MAPK1): 96.9%
Activity% (TAOK1; 1 μM): 79.31%
activity at 1 µM (TAOK1): 79.8%
Activity% (TAOK3/JIK; 1 μM): 93.52%
activity at 1 µM (TAOK3/JIK): 94.6%
